Consider 24 compounds from patent US11685729B2, “C5a receptor modulators” (IDORSIA PHARMACEUTICALS LTD., priority 2018, dated 2023).

Usually IC50 stands for the midpoint of a concentration-inhibition curve.

Sequence of C5AR1 (P21730 whole entry): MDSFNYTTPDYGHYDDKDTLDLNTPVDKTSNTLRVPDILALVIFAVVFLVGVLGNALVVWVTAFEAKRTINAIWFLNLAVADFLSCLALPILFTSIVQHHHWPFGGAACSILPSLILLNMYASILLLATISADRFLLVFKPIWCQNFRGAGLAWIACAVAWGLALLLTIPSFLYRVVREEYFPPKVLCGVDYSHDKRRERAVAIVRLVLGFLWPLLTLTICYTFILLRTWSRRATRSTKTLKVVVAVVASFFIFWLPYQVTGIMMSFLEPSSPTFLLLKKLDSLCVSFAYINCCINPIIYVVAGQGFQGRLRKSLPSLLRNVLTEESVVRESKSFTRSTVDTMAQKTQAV

One assay has as its target C5AR1 (Homo sapiens (Human), UniProt P21730). The assay is described as follows: In vitro assay: PathHunter beta-arrestin antagonist assay in CHO-K1 C5AR1 beta-arrestin cell line, stimulated with C5a agonist.
Conditions: not given
Compound `Cc1cccc(F)c1N1CCC(N2Cc3ccccc3N(Cc3nnccc3OC(C)C)C2=O)CC1` [Example 80, 3-[1-(2-Fluoro-6-methyl-phenyl)-piperidin-4-yl]-1-(4-isopropoxy-pyridazin-3-ylmethyl)-3,4-dihydro-1H-quinazolin-2-one] yielded an IC50 of 1.79 µM.

Still in this assay, the particulars now being: read-out: C5aR IC50; CHO-K1 C5AR1 beta-arrestin cell line; 1-10 nM C5a agonist; geometric mean values.
As to `Cc1ccnc(C)c1N1CCC(N2Cc3ccccc3N(Cc3ccccc3C(F)(F)F)C2=O)CC1` [Example 28, 3-(2′,4′-Dimethyl-3,4,5,6-tetrahydro-2H-[1,3′]bipyridinyl-4-yl)-1-(2-trifluoromethyl-benzyl)-3,4-dihydro-1H-quinazolin-2-one], the IC50 is 0.287 µM.

In the case of `COc1cccc(C)c1N1CCC(N2Cc3cccc(OC)c3N(Cc3ccccc3C(F)(F)F)C2=O)CC1` [Example 25, 8-Methoxy-3-[1-(2-methoxy-6-methyl-phenyl)-piperidin-4-yl]-1-(2-trifluoromethyl-benzyl)-3,4-dihydro-1H-quinazolin-2-one], the half-maximal inhibitory concentration (IC50) is 0.497 µM.

As for `Cc1cccc(F)c1N1CCC(N2Cc3ccccc3N(Cc3cncnc3C(C)C)C2=O)CC1` [Example 63, 3-[1-(2-Fluoro-6-methyl-phenyl)-piperidin-4-yl]-1-(4-isopropyl-pyrimidin-5-ylmethyl)-3,4-dihydro-1H-quinazolin-2-one], the IC50 was 0.061 µM.

For `CCOc1ccccc1CN1C(=O)N(C2CCN(c3c(C)cccc3F)CC2)Cc2ccccc21` [Example 46, 1-(2-Ethoxy-benzyl)-3-[1-(2-fluoro-6-methyl-phenyl)-piperidin-4-yl]-3,4-dihydro-1H-quinazolin-2-one], the IC50 is 0.035 µM.

`COc1nccc(C)c1N1CCC(N2Cc3ccccc3N(Cc3ccccc3C(F)(F)F)C2=O)CC1` [Example 29, 3-(2′-Methoxy-4′-methyl-3,4,5,6-tetrahydro-2H-[1,3′]bipyridinyl-4-yl)-1-(2-trifluoromethyl-benzyl)-3,4-dihydro-1H-quinazolin-2-one]: the IC50 was 0.035 µM.

On to `Cc1cccc(F)c1N1CC[C@@H](N2Cc3ccccc3N(Cc3ccccc3C(F)(F)F)C2=O)C1` [Example 26, 3-[(R)-1-(2-Fluoro-6-methyl-phenyl)-pyrrolidin-3-yl]-1-(2-trifluoromethyl-benzyl)-3,4-dihydro-1H-quinazolin-2-one], for which the half-inhibitory concentration (IC50) amounted to 0.035 µM.

On to `Cc1cccc(F)c1N1CCC(N2Cc3nnccc3N(Cc3ccccc3C(F)(F)F)C2=O)CC1` [Example 66, 7-[1-(2-Fluoro-6-methyl-phenyl)-piperidin-4-yl]-5-(2-trifluoromethyl-benzyl)-7,8-dihydro-5H-pyrimido[5,4-c]pyridazin-6-one], for which the half-inhibitory concentration (IC50) is 1.92 µM.

On to `COc1nccc(C)c1N1CC[C@@H](N2Cc3ccccc3N(Cc3ccccc3C(F)(F)F)C2=O)C1` [Example 31, 3-[(R)-1-(2-Methoxy-4-methyl-pyridin-3-yl)-pyrrolidin-3-yl]-1-(2-trifluoromethyl-benzyl)-3,4-dihydro-1H-quinazolin-2-one], for which the half-maximal inhibitory concentration (IC50) stood at 0.037 µM.

Take `Cc1cccc(F)c1N1CCCC(N2Cc3ccccc3N(Cc3ccccc3C(F)(F)F)C2=O)CC1` (stereo not drawn) [Example 77, 3-[1-(2-Fluoro-6-methyl-phenyl)-azepan-4-yl]-1-(2-trifluoromethyl-benzyl)-3,4-dihydro-1H-quinazolin-2-one]: the IC50 was found to be 0.175 µM.

In the case of `COc1nccnc1CN1C(=O)N(C2CCN(c3c(F)cccc3C#N)CC2)Cc2ccccc21` [Example 39, 3-Fluoro-2-{4-[1-(3-methoxy-pyrazin-2-ylmethyl)-2-oxo-1,4-dihydro-2H-quinazolin-3-yl]-piperidin-1-yl}-benzonitrile], the IC50 was found to be 1.05 µM.

With `Cc1cccc(F)c1N1CCC(N2Cc3ccccc3N(Cc3ccccc3OC3CCC3)C2=O)CC1` [Example 52, 1-(2-Cyclobutoxy-benzyl)-3-[1-(2-fluoro-6-methyl-phenyl)-piperidin-4-yl]-3,4-dihydro-1H-quinazolin-2-one], the IC50 stood at 0.069 µM.

`Cc1cccc(F)c1N1CCC(N2Cc3ccccc3N(Cc3ccccc3C3CC3)C2=O)CC1` [Example 56, 1-(2-Cyclopropyl-benzyl)-3-[1-(2-fluoro-6-methyl-phenyl)-piperidin-4-yl]-3,4-dihydro-1H-quinazolin-2-one]: the IC50 was 0.028 µM.

For the compound `Cc1cccc(F)c1N1CCC(N2Cc3ccccc3N(Cc3ccccc3OC3CCOCC3)C2=O)CC1` [Example 53, 3-[1-(2-Fluoro-6-methyl-phenyl)-piperidin-4-yl]-1-[2-(tetrahydro-pyran-4-yloxy)-benzyl]-3,4-dihydro-1H-quinazolin-2-one], the IC50 is 0.032 µM.

Take `Cc1cccc(C)c1N1CC[C@@H](N2Cc3ccccc3N(Cc3ccccc3C(F)(F)F)C2=O)C1` [Example 18, 3-[(R)-1-(2,6-Dimethyl-phenyl)-pyrrolidin-3-yl]-1-(2-trifluoromethyl-benzyl)-3,4-dihydro-1H-quinazolin-2-one]: the IC50 came out at 0.028 µM.

For the compound `COc1cccc(C)c1N1CC[C@@H](N2Cc3ccccc3N(Cc3ccccc3C(F)(F)F)C2=O)C1` [Example 27, 3-[(R)-1-(2-Methoxy-6-methyl-phenyl)-pyrrolidin-3-yl]-1-(2-trifluoromethyl-benzyl)-3,4-dihydro-1H-quinazolin-2-one], the IC50 came out at 0.037 µM.

With `O=C1N(Cc2ccccc2C(F)(F)F)c2ccccc2CN1[C@@H]1CCN(c2c(F)cccc2F)C1` [Example 19, 3-[(R)-1-(2,6-Difluoro-phenyl)-pyrrolidin-3-yl]-1-(2-trifluoromethyl-benzyl)-3,4-dihydro-1H-quinazolin-2-one], the IC50 is 0.053 µM.

For the compound `Cc1nn(C)c(N2CCC(N3Cc4ccccc4N(Cc4ccccc4C(F)(F)F)C3=O)CC2)c1C#N` [Example 72, 1,3-Dimethyl-5-{4-[2-oxo-1-(2-trifluoromethyl-benzyl)-1,4-dihydro-2H-quinazolin-3-yl]-piperidin-1-yl}-1H-pyrazole-4-carbonitrile], the IC50 was 2.66 µM.

Consider `Cc1cccc(F)c1N1CC(N2Cc3ccccc3N(Cc3ccccc3C(F)(F)F)C2=O)C1` [Example 81, 3-[1-(2-Fluoro-6-methyl-phenyl)-azetidin-3-yl]-1-(2-trifluoromethyl-benzyl)-3,4-dihydro-1H-quinazolin-2-one], for which the IC50 is 1.28 µM.

On to `Cc1cccc(F)c1N1CCC(N2Cc3ccccc3N(Cc3ccccc3OCC3CC3)C2=O)CC1` [Example 54, 1-(2-Cyclopropylmethoxy-benzyl)-3-[1-(2-fluoro-6-methyl-phenyl)-piperidin-4-yl]-3,4-dihydro-1H-quinazolin-2-one], for which the IC50 came to 0.066 µM.

As to `Cc1cccc(F)c1N1CCC(N2Cc3ccnnc3N(Cc3ccccc3C(F)(F)F)C2=O)CC1` [Example 41, 6-[1-(2-Fluoro-6-methyl-phenyl)-piperidin-4-yl]-8-(2-trifluoromethyl-benzyl)-5,8-dihydro-6H-pyrimido[4,5-c]pyridazin-7-one], the IC50 stood at 0.109 µM.

Regarding `COc1ccccc1CN1C(=O)N(C2CCN(c3c(C)cccc3F)CC2)Cc2ccccc21` [Example 37, 3-[1-(2-Fluoro-6-methyl-phenyl)-piperidin-4-yl]-1-(2-methoxy-benzyl)-3,4-dihydro-1H-quinazolin-2-one], the IC50 was 0.138 µM.

For `COc1ccccc1N1CC[C@@H](N2Cc3ccccc3N(Cc3ccccc3C(F)(F)F)C2=O)C1` [Example 20, 3-[(R)-1-(2-Methoxy-phenyl)-pyrrolidin-3-yl]-1-(2-trifluoromethyl-benzyl)-3,4-dihydro-1H-quinazolin-2-one], the 50% inhibitory concentration (IC50) was 0.181 µM.

For `Cc1nn(C)c(N2CCC(N3Cc4ccccc4N(Cc4ccccc4C(F)(F)F)C3=O)CC2)c1Cl` [Example 73, 3-[1-(4-Chloro-2,5-dimethyl-2H-pyrazol-3-yl)-piperidin-4-yl]-1-(2-trifluoromethyl-benzyl)-3,4-dihydro-1H-quinazolin-2-one], the IC50 was determined as 1.33 µM.
